# Measurements reported in patent publication US11667667B2, “Steroid derivative FXR agonist” (Chia Tai Tianqing Pharmaceutical Group Co., Ltd., priority 2016, dated 2023).
# Assays:
# [1] = Pharmacokinetics in mice administrated with single compound; assay type: in vivo, mice (C57BL/6J); details: for drug exposure compared with control compound INT-747 / peak concentration compared with control compound INT-747: mice, oral administration at the same dosage
# Experimental: Pharmacokinetics in Mice Administrated with Single Compound:
# 12 male mice (C57BL/6J) were randomly divided into two groups, i.e., 6 mice per group. […] Plasma (using K2-EDTA as anticoagulant) samples were taken at 0.083, 0.25, 0.5, 1, 2, 4, 6, 8 and 24 hours in the intravenous administration group after administration; and plasma samples were taken at 0.25, 0.5, 1, 2, 4, 6, 8 and 24 hours in the oral administration group after administration. For 6 animals in each group, blood samples were collected for 3 animals at one time point. The first batch of 3 animals was alternately sampled with the second batch of 3 animals. Plasma sample analysis was performed by using LC-MS/MS. The resultant plasma concentrations were plotted with repect to time, and PK parameters were calculated by using Phoenix WinNonlin 6.3.
# [2] = target: T1, Glutathione-S-transferase-labeled FXR human protein (Homo sapiens, UniProt Q96RI1); experiment: FXR biochemical experiment (AlphaScreen, coactivator recruitment); details: for Emax: ratio of highest signal of the compound to that of the reference compound, read-out: FXR enzyme activity Efficacy; for EC50: AlphaScreen, GST-FXR human protein + biotin-labeled steroid receptor coactivator, read-out: FXR enzyme activity EC50
# T1 construct: purchased Invitrogen
# T1 sequence (Q96RI1 1-486): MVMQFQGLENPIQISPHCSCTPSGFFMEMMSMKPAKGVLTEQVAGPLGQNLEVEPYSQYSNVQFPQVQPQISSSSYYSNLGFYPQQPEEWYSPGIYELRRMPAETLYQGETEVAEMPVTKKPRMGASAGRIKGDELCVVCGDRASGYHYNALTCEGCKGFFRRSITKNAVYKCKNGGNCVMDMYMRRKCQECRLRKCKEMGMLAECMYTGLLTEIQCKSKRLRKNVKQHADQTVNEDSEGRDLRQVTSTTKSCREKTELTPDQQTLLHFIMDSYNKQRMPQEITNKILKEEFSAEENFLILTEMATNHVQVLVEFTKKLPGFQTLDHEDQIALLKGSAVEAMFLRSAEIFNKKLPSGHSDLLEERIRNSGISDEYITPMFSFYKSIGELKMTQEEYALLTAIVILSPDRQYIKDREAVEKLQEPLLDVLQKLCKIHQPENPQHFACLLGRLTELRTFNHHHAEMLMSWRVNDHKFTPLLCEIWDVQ
# Experimental: FXR Biochemical Experiment Experimental Purpose: The activation effect of the compound on FXR binding reaction was detected by AlphaScreen. […] Protein: Glutathione-S-transferase-labeled FXR human protein (Invitrogen) 2. Co-activator: Biotin-labeled steroid receptor coactivator (Anaspec) 3. […] Compound Dilution: The compound to be tested was prepared as a 40 μM DMSO solution, and then diluted 3-fold to 10 concentration points. The reference compound was prepared as a 400 μM DMSO solution, and then diluted 1.5-fold to 10 concentration points. The diluted DMSO solution was added to the wells of a 384-well plate in a volume of 150 nL per well. 2. […] 4. […] The operation during the experimental process was protected from light. The incubation was performed for 1 hour at room temperature. 5. […] The operation during the experimental process was protected from light. The incubation was performed for 1 hour at room temperature. 6. EC50 test: Envision was used with excitation at 680 nm to read the […] signals at 520-620 nm. 7. Analytical data: The data were analyzed via using Prism 5.0, and the EC50 values of the activation effects of the compounds were calculated.
# [3] = target: T2, FXR (FXR HEK 293T DA cell line) (Homo sapiens, UniProt Q96RI1); experiment: FXR cell experiment (β-lactamase reporter gene, GeneBLAzer); assay type: cell-based; details: for Emax: HEK-293T, read-out: FXR cell activity Efficacy; for EC50: FXR HEK 293T DA cells, β-lactamase reporter, 16 hours;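 as to FXR cell activity Efficacy: Emax relative to maximal signal of reference agonist chenodeoxycholic acid (CDCA)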
# T2 construct: expressed in transfected cells; host or cells: HEK 293T (FXR HEK 293T DA)
# Experimental: Compound Dilution: The compound to be tested was prepared as a 100 μM DMSO solution, and then the compound was diluted 3-fold to 10 concentration points. The reference compound was prepared as a 100 μM DMSO solution, and then diluted 1.3-fold to 10 concentration points. The diluted DMSO solution was added to the wells of a 384-well plate in a volume of 200 nL per well. 2. […] The 384-well microplate was incubated at 37° C., 5% CO2 for 16 hours. 4. 6 μL of 1 mM LiveBLAzer™-FRET B/G (CCF4-AM) substrate was mixed with 60 μL of B solution and 934 μL of C solution, and added to the wells of the 384-well plate in a volume of 8 μL per well. […] The 384-well microplate was incubated in dark for 2 hours at room temperature. 6. […] 7.
# [4] = Liver-blood ratio experiment of mice via cassette dosing; assay type: in vivo, mice (C57BL/6J); details: for Concentration in liver / Concentration in plasma / Concentration ratio of liver to plasma: oral cassette 2 mg/kg
# Experimental: Liver-Blood Ratio Experiment of Mice Via Cassette Dosing
# 6 male mice (C57BL/6J) were grouped as an oral administration group. 5 kinds of the developed drugs were contained in the formulation, and intragastrical administration was performed at a dose of 2 mg/kg/compound (the vehicle was 0.5% HPMC aqueous solution). The five compounds were firstly and respectively dissolved in the vehicle, and sonicated or whirled to form a 1 mg/mL solution (clear solution or suspension), respectively; and then the solutions of the five compound were mixed in equal volumes (1:1:1:1:1, v:v:v:v:v) into a glass bottle. After intragastrical oral administration, plasma and liver tissue samples were collected from 3 animals at 0.5 h after administration; corresponding samples were collected from the other 3 animals at 3 h after administration. After collection, the liver tissue was homogenized by using ice-cold homogenization buffer (methanol:15 mM PBS buffer (pH 7.4)=1:2, v:v) based on the ratio of liver weight:homogenization buffer volume=1:3. Plasma and liver tissue samples were analyzed by using a five-in-one LC-MS/MS analysis method developed in advance. The concentrations of plasma and liver tissue homogenate were obtained, and the concentration ratios of liver tissue to plasma were calculated by using Excel.
# [5] = oral, same dosage, at 0.5 h and 3 h
# [6] = mouse, plasma, male C57BL/6J mice, oral 10 mg/kg
# T2 sequence (Q96RI1 with tags, fused parts or gaps limits assumed): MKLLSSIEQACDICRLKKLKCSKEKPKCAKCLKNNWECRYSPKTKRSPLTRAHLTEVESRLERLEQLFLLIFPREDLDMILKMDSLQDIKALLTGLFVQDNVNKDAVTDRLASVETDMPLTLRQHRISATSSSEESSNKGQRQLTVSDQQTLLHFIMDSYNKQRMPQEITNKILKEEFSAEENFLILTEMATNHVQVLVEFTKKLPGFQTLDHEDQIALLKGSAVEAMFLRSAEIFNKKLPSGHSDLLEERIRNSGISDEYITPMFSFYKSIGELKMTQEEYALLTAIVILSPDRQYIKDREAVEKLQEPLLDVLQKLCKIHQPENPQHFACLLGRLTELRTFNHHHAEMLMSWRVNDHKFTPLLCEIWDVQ
SMILES,Emax [2] [%],Emax [3] [%],EC50 [2] [nM],EC50 [3] [nM],also measured
CC[C@H]1[C@@H](O)[C@@H]2[C@H](CC[C@]3(C)[C@@H]([C@H](C)CCOc4ncc(C(=O)O)cc4Cl)CC[C@@H]23)[C@@]2(C)CC[C@@H](O)C[C@@H]12 [Example 23],248,150,–,–,drug exposure compared with control compound INT-747 [1]: higher; peak concentration compared with control compound INT-747 [1]: higher
CC[C@H]1[C@@H](O)[C@@H]2[C@H](CC[C@]3(C)[C@@H]([C@H](C)CCOc4ccc(C(=O)O)cn4)CC[C@@H]23)[C@@]2(C)CC[C@@H](O)C[C@@H]12 [Example 22],249,–,–,–,"Concentration in liver ([4]; 0.5 h): 1959 nM; Concentration in plasma ([4]; 0.5 h): 83 nM; Concentration ratio of liver to plasma ([4]; 0.5 h): 24; Concentration in liver ([4]; 3 h): 701 nM; Concentration in plasma ([4]; 3 h): 45 nM; Concentration ratio of liver to plasma ([4]; 3 h): 16; drug concentrations in the liver compared with control compound [4, 5]: higher; liver/blood concentration ratios compared with control compound [4, 5]: higher; drug exposure compared with control compound INT-747 [1]: higher; peak concentration compared with control compound INT-747 [1]: close to; bioavailability ([1]; mouse, plasma, male C57BL/6J mice, oral 10 mg/kg vs intravenous 2 mg/kg): 34%"
CC[C@H]1[C@@H](O)[C@@H]2[C@H](CC[C@]3(C)[C@@H]([C@H](C)CCn4cc(C(=O)O)ccc4=O)CC[C@@H]23)[C@@]2(C)CC[C@@H](O)C[C@@H]12 [Example 5],134,190,90,570,–
CC[C@@H]1C2C[C@H](O)CC[C@]2(C)[C@H]2CC[C@]3(C)[C@@H]([C@H](C)CCn4cc(C(=O)O)cn4)CC[C@H]3[C@@H]2[C@@H]1O (some centres unmarked) [Example 4],334,131,720,1870,–
CC[C@H]1[C@@H](O)[C@@H]2[C@H](CC[C@]3(C)[C@@H]([C@H](C)CCCn4cc(C(=O)O)ccc4=O)CC[C@@H]23)[C@@]2(C)CC[C@@H](O)C[C@@H]12 [Example 17],313,131,600,2500,–
CC[C@H]1[C@@H](O)[C@@H]2[C@H](CC[C@]3(C)[C@@H]([C@H](C)CCc4cccc(C(=O)O)c4)CC[C@@H]23)[C@@]2(C)CC[C@@H](O)C[C@@H]12 [Example 19],251,143,150,370,–
CC[C@H]1[C@@H](O)[C@@H]2[C@H](CC[C@]3(C)[C@@H]([C@H](C)CCOc4ccc(C(=O)O)nc4)CC[C@@H]23)[C@@]2(C)CC[C@@H](O)C[C@@H]12 [Example 10],188,138,60,200,–
CC[C@H]1[C@@H](O)[C@@H]2[C@H](CC[C@]3(C)[C@@H]([C@H](C)CCOc4cccc(C(=O)O)c4)CC[C@@H]23)[C@@]2(C)CC[C@@H](O)C[C@@H]12 [Example 7],360,140,30,60,–
CC[C@H]1[C@@H](O)[C@@H]2[C@H](CC[C@]3(C)[C@@H]([C@H](C)CCOc4ncccc4C(=O)O)CC[C@@H]23)[C@@]2(C)CC[C@@H](O)C[C@@H]12 [Example 26],280,–,130,–,"Concentration in liver ([4]; 0.5 h): 3904 nM; Concentration in plasma ([4]; 0.5 h): 387 nM; Concentration ratio of liver to plasma ([4]; 0.5 h): 10; Concentration in liver ([4]; 3 h): 358 nM; Concentration in plasma ([4]; 3 h): 18 nM; Concentration ratio of liver to plasma ([4]; 3 h): 20; drug concentration in the liver compared with control compound ([4]; oral, same dosage, at 0.5 h): higher; liver/blood concentration ratios compared with control compound [4, 5]: higher"
CC[C@H]1[C@@H](O)[C@@H]2[C@H](CC[C@]3(C)[C@@H]([C@H](C)CCOc4cncc(C(=O)O)c4)CC[C@@H]23)[C@@]2(C)CC[C@@H](O)C[C@@H]12 [Example 11],241,132,30,100,"drug exposure compared with control compound INT-747 [1]: higher; peak concentration compared with control compound INT-747 [1]: higher; AUC [1, 6]: 5.17 µM·h; Cmax [1, 6]: 1430 nM; Tmax [1, 6]: 2 h"
CC[C@H]1[C@@H](O)[C@@H]2[C@H](CC[C@]3(C)[C@@H]([C@H](C)CCN4CC(C(=O)O)CCC4=O)CC[C@@H]23)[C@@]2(C)CC[C@@H](O)C[C@@H]12 (some centres unmarked) [Example 1],320,134,900,17900,–
CC[C@H]1[C@@H](O)[C@@H]2[C@H](CC[C@]3(C)[C@@H]([C@H](C)CCOc4cc(C(=O)O)ccn4)CC[C@@H]23)[C@@]2(C)CC[C@@H](O)C[C@@H]12 [Example 9],407,130,160,140,–
CC[C@H]1[C@@H](O)[C@@H]2[C@H](CC[C@]3(C)[C@@H]([C@H](C)CCn4ccc(C(=O)O)cc4=O)CC[C@@H]23)[C@@]2(C)CC[C@@H](O)C[C@@H]12 [Example 6],375,132,360,5160,–
